Literature values in patent publication US6183777A (priority 1997, dated 2001).

Experiments:
[1] = tested on: Alzheimer's Disease patients; conditions: mild to medium AD
[2] = tested on: cerebral acetyl choline; conditions: in particular in the cerebral cortex
[3] = in vivo

Cl.Nc1c2c(nc3ccccc13)CCCC2 [Tacrine, 1,2,3,4-tetrahydro-9-acridinamine hydrochloride]
memory and recognition of patients [1]: can significantly improve the memory and recognition of patients | cerebral acetyl choline concentration [2]: may increase cerebral acetyl choline concentration | oral bioavailability, variation between individuals: may significantly vary in different individuals | adverse effects [3]: gastro-intestinal side effects, such as nausea, vomiting, diarrhea, dyspepsia and loss of appetite; kinetic ataxia of voluntary muscles and myalgia; sweating and bradycardia induced by overexcitement of vagus nerues | hepatoxicity [3]: may cause reversible hepatoxicity
